1 compound from article PMC12299847, “Macroalgae-Inspired Brominated Chalcones as Cosmetic Ingredients with the Potential to Target Skin Inflammaging” (Marine Drugs, 2025) can be followed below.

The structures appear in SMILES notation.

The nature of assay [1]: NO scavenging potential (SNAP assay). The class given is biochemical. The following applies: SNAP 300 μM, 3 h; compounds 100 μM (methods) or 7.5 μM (Figure 5). As for the experimental part: The SNAP (S-nitroso-N-acetylpenicillamine) assay is a well-established method for assessing the NO scavenging capacity of compounds, offering valuable insights into their potential direct antioxidant and anti-inflammatory properties. In this study, chalcones 1–7 were tested for their ability to capture NO radicals induced by the presence of SNAP at a concentration of 300 μM (Figure 5). […] Instead, these compounds could potentially exert their effects via alternative mechanisms, such as the modulation of iNOS activity or by targeting upstream targets in the inflammatory cascade, such as by the suppression of NF-κB activation, and/or Nrf2 activation, which will deplete co-activators from the iNOS enzyme, thereby reducing iNOS transcription and, consequently, iNOS protein levels and NO production.
The ability to scavenge NO was assessed using S-nitroso-N-acetyl-D/L-penicillamine (SNAP) as a source of NO. The production of NO was quantified using the Griess reaction, following a previously described method. […] Absorbance at 550 nm was then measured using a Biotek Synergy HT plate reader (Biotek, CA, USA). The nitrite concentration in the supernatants was determined by comparing the absorbance of each sample to a sodium nitrite standard curve. […]

Assay [2] relates to iNOS protein levels in RAW264.7 macrophages. Kind of assay: Western blot analysis of iNOS expression in LPS-stimulated macrophages. In kind it is cell-based, murine. The following applies: for iNOS expression level: normalized against LPS condition. The method, then:
To investigate the underlying mechanism of action of the most promising brominated chalcones (1 and 2), their effects on iNOS protein levels were assessed in LPS-stimulated macrophages at different time points (4, 6, and 24 h). The non-treated (NT) condition, consisting of macrophages stimulated with LPS but receiving no chalcone treatment, was used as the reference for maximal iNOS induction under inflammatory conditions and served as a positive control. The selected concentrations (7.5 μM and 15 μM) were selected based on chalcones 1 and 2 cytocompatibility (Figure 3) and efficacy in reducing NO production (Figure 4). Since NO production is a direct consequence of iNOS enzymatic activity, where the enzyme catalyzes the conversion of L-arginine to NO following inflammatory stimulation such as LPS, this provides a functional readout of iNOS expression and activity.
Here, we focused on validating iNOS expression at the protein level by western blot (Figure 6). While gene-level expression was not assessed, it is well established that LPS stimulation induces both iNOS transcription and translation in RAW 264.7 macrophages. Moreover, changes observed at the protein level are often closely associated with upstream transcriptional or translational modulation. Therefore, quantifying iNOS protein levels provides a biologically relevant measure of the chalcones’ inhibitory effects on this key inflammatory mediator.
The expression of the iNOS enzyme was analyzed by western blot. RAW264.7 macrophages were seeded at a density of 1 × 10^6 cells/well in a 6-well plate and incubated for 24 h at 37 °C in a humidified atmosphere containing 5% CO2. After incubation, cells were treated with 7.5 µM or 15 µM of the most promising chalcones (1 and 2) for 30 min, followed by the addition of LPS to have a final concentration of 100 ng/mL. Cells were then incubated for 4, 6, or 24 h. At each time point, cells were washed with PBS and lysed in RIPA buffer. The lysates were collected in Eppendorf tubes and kept on ice, with intermittent vortexing to ensure thorough lysis. Samples were centrifuged at 18,000× g for 16 min at 4 °C, and the supernatant was collected. Total protein concentration was determined using the Pierce™ BCA Protein Assay Kit (Thermo Scientific, 23225, Waltham, MA, USA), following the manufacturer’s instructions. Equal amounts of protein (25 µg) were loaded onto Bolt™ 8% Bis-Tris Mini Protein Gels (Invitrogen™, NW00087BOX, Waltham, MA, USA) and separated via electrophoresis. Proteins were then transferred onto nitrocellulose membranes (Invitrogen™, IB24002) using the iBlot® 2 dry transfer system (Invitrogen™, Waltham, MA, USA). After transfer, membranes were sectioned to separate the iNOS bands from those of the housekeeping protein GAPDH. Membranes were blocked for 1 h at room temperature in TBS-T containing 5% BSA and subsequently incubated overnight at 4 °C with primary antibodies against iNOS (Cell Signaling Technology, 16713120S, Danvers, MA, USA) or GAPDH (Abcam, ab181602, Cambridge, UK), diluted in TBS-T with 1% BSA. On the following day, membranes were washed three times with TBS-T and incubated for 1 h at room temperature with an HRP-conjugated secondary antibody (Cell Signaling Technology, 7074S) diluted in TBS-T with 1% BSA. After three additional washes, signal detection was performed using Clarity™ Western ECL Substrate (Bio-Rad, 1705061, Hercules, CA, USA), and chemiluminescent signals were acquired using the Odyssey FC imaging system (LI-COR, Lincoln, NE, USA). Densitometric analysis of iNOS bands was performed using Image Studio™ Software (version 5.2, LI-COR, Lincoln, NE, USA), with values normalized to the corresponding GAPDH bands.
Figure 6 iNOS expression level after treatment of 4, 6, and 24 h with chalcones 1 and 2 in macrophage cell line. Results are expressed as volume arbitrary unit (A). […]

`COc1cc(Br)c(/C=C/C(=O)c2cc(OC)c(OC)cc2Br)cc1OC` [Chalcone 1]: the NO scavenging activity result in assay [1] is “No direct NO scavenging action”. Moreover, the iNOS expression level stood at 84.7% in assay [2] (7.5 µM, 4 h); 14.3% in assay [2] (7.5 µM, 24 h); 28.3% in assay [2] (15 µM, 4 h); 13.5% in assay [2] (15 µM, 6 h); 16.7% in assay [2] (15 µM, 24 h). The “maximum reduction of iNOS expression” value in assay [2] (regardless of concentration (7.5 µM at 24 h, 15 µM at 6 h)) is given as “approximately 85%”.
